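In this assay, cells in 96-well plates receive the compound at five concentrations for 48 hours. Endpoints are linearly interpolated between the surrounding concentrations. GI50 marks 50% less growth.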 Active and inactive are the calls of the source. Rule as the data show it: active = GI50 up to about 1.1 µM and inactive = higher.

Test systems include CAKI-1; HCT-116; HOP-62; HOP-92; K562; KM12; LOX IMVI; MOLT-4; Malme-3M; NCI-H522; OVCAR-5; OVCAR-8; RXF 393; SK-OV-3; TK-10; UACC-257; UO-31; ACHN.
What all share (assay): growth of human tumour cells (NCI), 48 h

As to `N#CC(C#N)=c1[nH]c2cccc3c2-c2c(cccc2c3=C(C#N)C#N)[nH]1`, the GI50 with CAKI-1 is > 100 µM (inactive); in the assay on HCT-116, 80.7 µM (inactive); in the assay with HOP-62 it was > 100 µM (inactive); with HOP-92, > 100 µM (inactive); in the assay with K562, > 100 µM (inactive); in the assay with KM12, > 100 µM (inactive). Besides, the GI50 in the assay on LOX IMVI, in the assay with MOLT-4, with Malme-3M, with NCI-H522, with OVCAR-5 and with OVCAR-8 was > 100 µM (inactive) in each case. Also, the GI50 is 79.6 µM (inactive) in the assay with RXF 393; > 100 µM (inactive) in the assay with SK-OV-3; > 100 µM (inactive) in the assay on TK-10; > 100 µM (inactive) with UACC-257; > 100 µM (inactive) in the assay with UO-31.

As to `CN(C)/C=N/c1nc2ncn(CCOC(=O)c3ccccc3)c2c(=O)[nH]1`, the GI50 in the assay on ACHN, in the assay with CAKI-1, with HCT-116, in the assay with HOP-62, in the assay on HOP-92 and in the assay with K562 was > 100 µM (inactive) each time. For the same compound, the GI50 in the assay with KM12, in the assay on LOX IMVI, in the assay with Malme-3M, in the assay on NCI-H522, in the assay on OVCAR-5 and with OVCAR-8 was > 100 µM (inactive) in each case. Further, the GI50 in the assay with RXF 393, with SK-OV-3, in the assay with TK-10, in the assay on UACC-257 and in the assay on UO-31 was > 100 µM (inactive) throughout.

Regarding `Brc1ccc(N2C[N+](c3ccc(Br)cc3)=NC(c3ccccc3)=N2)cc1`, the GI50 in the assay with ACHN was 13.6 µM (inactive); in the assay on CAKI-1, 18.1 µM (inactive); with HCT-116, 18.8 µM (inactive); in the assay on HOP-62, 17.2 µM (inactive); with HOP-92, 18.7 µM (inactive); with K562, 10.9 µM (inactive). Moreover, the GI50 in the assay on KM12 is 14.9 µM (inactive); in the assay with MOLT-4 it was 14.2 µM (inactive); with Malme-3M it was 16.7 µM (inactive); with NCI-H522, 19.6 µM (inactive); in the assay with OVCAR-5, 16.4 µM (inactive); in the assay with OVCAR-8 it was 21.9 µM (inactive). The GI50 is 22.6 µM (inactive) in the assay with RXF 393; 19.6 µM (inactive) in the assay with SK-OV-3; 19.5 µM (inactive) in the assay with TK-10; 17.5 µM (inactive) with UACC-257; 14.5 µM (inactive) in the assay with UO-31.

Regarding `CC1C=C(CCCCCCCCCCCC[C@@H](O)[C@@H]2CC[C@@H]([C@@H]3CC[C@@H](C(O)CCCCCCCCCCCCC4=C[C@H](C)OC4=O)O3)O2)C(=O)O1` (stereo partly drawn), the GI50 in the assay on ACHN is > 100 µM (inactive); with CAKI-1 it was > 100 µM (inactive); with HOP-62, > 100 µM (inactive); in the assay with HOP-92 it was 21.9 µM (inactive); in the assay with K562, 0.993 µM (active); in the assay on KM12, > 68.1 µM (inactive). In addition, the GI50 in the assay on LOX IMVI is 12.2 µM (inactive); with MOLT-4 it was 11.6 µM (inactive); in the assay on Malme-3M, > 91.2 µM (inactive); with NCI-H522, 1.28 µM (inactive); in the assay with OVCAR-5 it was > 100 µM (inactive); with OVCAR-8 it was 25.5 µM (inactive). For the same compound, the GI50 with RXF 393 is > 96.8 µM (inactive); in the assay with SK-OV-3 it was > 100 µM (inactive); in the assay on TK-10 it was > 100 µM (inactive); in the assay on UACC-257, 0.387 µM (active); with UO-31, 6.67 µM (inactive).

Source of the values: ChEMBL document CHEMBL1201862, “PubChem BioAssay data set” (2004).
